Measured values: patent US9988400B2 (Genentech, Inc., priority 2013, dated 2018)

Each compound was assayed against T1, HEK cells stably transfected with tetracycline inducible hNR1 and hNR2A (Homo sapiens, UniProt Q05586+Q12879) (assay: Assay 1: Cell-Based Assay, cytosolic calcium response to positive allosteric modulators (with 30 μM glycine and 300 nM L-glutamate, EC30)). Conditions: Table 3; cytosolic calcium response, with 30 μM glycine and 300 nM L-glutamate (EC30); — = no plateau was reached.
T1 construct: expressed in transfected cells; host or cells: HEK cells, stably transfected, tetracycline/doxycycline inducible
Procedure, shortened: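 Cells induced 24 h with 7.5 μg mL^−1 doxycycline plus 500 μM (+)-ketamine, loaded 60 min at 37 °C with calcium dye in Mg-free HBSS (1.8 mM Ca, probenecid, 10 μM (+)-ketamine, pH 7.15). Peak RFU over 5 min after compound addition, scaled to 100 μM L-glutamate (100%) and 0 μM (0%); four-parameter Hill fit for EC50, max % if no plateau.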

T1 sequence (Q12879 23-1464, other chains not shown): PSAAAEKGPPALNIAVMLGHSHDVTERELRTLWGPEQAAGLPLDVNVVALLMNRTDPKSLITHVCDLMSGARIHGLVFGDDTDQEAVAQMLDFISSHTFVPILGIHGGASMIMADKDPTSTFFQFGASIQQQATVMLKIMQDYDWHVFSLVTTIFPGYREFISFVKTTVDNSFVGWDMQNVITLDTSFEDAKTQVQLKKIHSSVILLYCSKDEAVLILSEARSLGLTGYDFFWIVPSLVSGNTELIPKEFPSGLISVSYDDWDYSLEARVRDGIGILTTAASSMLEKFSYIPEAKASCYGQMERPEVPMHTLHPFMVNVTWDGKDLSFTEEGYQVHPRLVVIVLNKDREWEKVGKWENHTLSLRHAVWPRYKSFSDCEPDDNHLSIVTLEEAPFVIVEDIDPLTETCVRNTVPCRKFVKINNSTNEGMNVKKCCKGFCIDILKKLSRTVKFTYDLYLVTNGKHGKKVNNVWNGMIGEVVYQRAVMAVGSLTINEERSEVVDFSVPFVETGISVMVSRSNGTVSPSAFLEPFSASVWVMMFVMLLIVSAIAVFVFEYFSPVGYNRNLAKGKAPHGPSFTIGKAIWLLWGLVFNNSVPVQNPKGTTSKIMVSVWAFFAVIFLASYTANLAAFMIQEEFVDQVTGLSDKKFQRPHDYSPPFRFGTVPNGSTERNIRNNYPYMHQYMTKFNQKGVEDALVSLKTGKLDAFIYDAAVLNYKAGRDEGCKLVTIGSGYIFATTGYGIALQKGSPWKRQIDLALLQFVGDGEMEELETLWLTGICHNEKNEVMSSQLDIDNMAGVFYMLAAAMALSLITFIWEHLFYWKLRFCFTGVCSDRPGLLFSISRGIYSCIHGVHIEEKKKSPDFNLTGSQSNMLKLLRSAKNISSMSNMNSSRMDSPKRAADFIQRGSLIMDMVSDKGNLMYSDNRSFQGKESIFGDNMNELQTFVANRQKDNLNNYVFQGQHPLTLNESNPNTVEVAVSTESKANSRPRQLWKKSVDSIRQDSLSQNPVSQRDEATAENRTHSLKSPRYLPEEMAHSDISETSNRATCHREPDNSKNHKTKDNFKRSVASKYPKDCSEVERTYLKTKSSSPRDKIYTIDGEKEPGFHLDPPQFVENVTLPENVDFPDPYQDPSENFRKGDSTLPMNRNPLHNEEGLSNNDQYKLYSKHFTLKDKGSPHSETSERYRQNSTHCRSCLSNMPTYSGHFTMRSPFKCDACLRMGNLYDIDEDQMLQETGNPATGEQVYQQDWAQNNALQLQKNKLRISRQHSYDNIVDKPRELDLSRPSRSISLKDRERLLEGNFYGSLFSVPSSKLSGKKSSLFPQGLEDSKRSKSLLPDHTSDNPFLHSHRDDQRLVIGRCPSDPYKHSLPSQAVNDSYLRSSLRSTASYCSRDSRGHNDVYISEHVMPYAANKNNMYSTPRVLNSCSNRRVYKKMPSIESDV

SMILES	EC50 [nM]
CNC(=O)Cc1c(C)sc2nc(Cn3nc(C(F)(F)F)cc3Cl)cc(=O)n12 [compound 98, 2-[7-[[5-chloro-3-(trifluoromethyl)pyrazol-1-yl]methyl]-2-methyl-5-oxo-thiazolo[3,2-a]pyrimidin-3-yl]-N-methyl-acetamide]	1570
CNC(=O)Cc1c(C)sc2nc(Cn3nc(Cl)cc3C(F)(F)F)cc(=O)n12 [compound 99, 2-[7-[[3-chloro-5-(trifluoromethyl)pyrazol-1-yl]methyl]-2-methyl-5-oxo-thiazolo[3,2-a]pyrimidin-3-yl]-N-methyl-acetamide]	3690
Cc1sc2nc(Oc3cccc(C(F)(F)F)c3F)cc(=O)n2c1C1CC1C#N (stereo not shown) [compound 101, 2-[7-[2-fluoro-3-(trifluoromethyl)phenoxy]-2-methyl-5-oxo-thiazolo[3,2-a]pyrimidin-3-yl]cyclopropanecarbonitrile]	3710
Cc1sc2nc(Cn3nc(Cl)cc3C(F)(F)F)cc(=O)n2c1C1CC1CO (stereo not shown) [compound 103, 7-[[3-chloro-5-(trifluoromethyl)pyrazol-1-yl]methyl]-3-[2-(hydroxymethyl)cyclopropyl]-2-methyl-thiazolo[3,2-a]pyrimidin-5-one]	251
Cc1sc2nc(Cn3nc(C(F)(F)F)cc3Cl)cc(=O)n2c1C1CC1C#N (stereo not shown) [compound 104, 2-[7-[[5-chloro-3-(trifluoromethyl)pyrazol-1-yl]methyl]-2-methyl-5-oxo-thiazolo[3,2-a]pyrimidin-3-yl]cyclopropanecarbonitrile]	34.1
Cc1sc2nc(Oc3cccc(C#N)c3F)cc(=O)n2c1C1CC1C (stereo not shown) [compound 107, 2-fluoro-3-[2-methyl-3-(2-methylcyclopropyl)-5-oxo-thiazolo[3,2-a]pyrimidin-7-yl]oxy-benzonitrile]	994
Cc1sc2nc(Cn3nc(C(F)(F)F)cc3Cl)cc(=O)n2c1C(C)O (stereo not shown) [compound 110, 7-[[5-chloro-3-(trifluoromethyl)pyrazol-1-yl]methyl]-3-(1-hydroxyethyl)-2-methyl-thiazolo[3,2-a]pyrimidin-5-one]	1880
Cc1sc2nc(Cn3nc(Cl)cc3C(F)(F)F)cc(=O)n2c1C(C)O (stereo not shown) [compound 111, 7-[[3-chloro-5-(trifluoromethyl)pyrazol-1-yl]methyl]-3-(1-hydroxyethyl)-2-methyl-thiazolo[3,2-a]pyrimidin-5-one]	6000
CCC(C)NC(=O)c1c(C)sc2nc(Cc3cccc(C(F)(F)F)c3F)cc(=O)n12 (stereo not shown) [compound 112, 7-[[2-fluoro-3-(trifluoromethyl)phenyl]methyl]-2-methyl-5-oxo-N-sec-butyl-thiazolo[3,2-a]pyrimidine-3-carboxamide]	825
Cc1sc2nc(Cn3nc(C(F)(F)F)cc3Cl)cc(=O)n2c1C#N [compound 114, 7-[[5-chloro-3-(trifluoromethyl)pyrazol-1-yl]methyl]-2-methyl-5-oxo-thiazolo[3,2-a]pyrimidine-3-carbonitrile]	1340
Cc1sc2nc(Cn3nc(Cl)cc3C(F)(F)F)cc(=O)n2c1C#N [compound 115, 7-[[3-chloro-5-(trifluoromethyl)pyrazol-1-yl]methyl]-2-methyl-5-oxo-thiazolo[3,2-a]pyrimidine-3-carbonitrile]	2750
Cc1sc2nc(Cn3nc(C(F)(F)F)cc3Cl)cc(=O)n2c1C1CC1 [compound 116, 7-[[5-chloro-3-(trifluoromethyl)pyrazol-1-yl]methyl]-3-cyclopropyl-2-methyl-thiazolo[3,2-a]pyrimidin-5-one]	351
Cc1sc2nc(Cn3nc(C(F)(F)F)cc3Cl)cc(=O)n2c1C1CC1C (stereo not shown) [compound 118, 7-[[5-chloro-3-(trifluoromethyl)pyrazol-1-yl]methyl]-2-methyl-3-(2-methylcyclopropyl)thiazolo[3,2-a]pyrimidin-5-one]	169
Cc1sc2nc(Cn3nc(Cl)cc3C(F)(F)F)cc(=O)n2c1-c1cncnc1 [compound 122, 7-[[3-chloro-5-(trifluoromethyl)pyrazol-1-yl]methyl]-2-methyl-3-pyrimidin-5-yl-thiazolo[3,2-a]pyrimidin-5-one]	9140
CCNC(=O)c1c(C)sc2nc(Cn3nc(C4CC4)cc3C(F)(F)F)cc(=O)n12 [compound 123, 7-[[3-cyclopropyl-5-(trifluoromethyl)pyrazol-1-yl]methyl]-N-ethyl-2-methyl-5-oxo-thiazolo[3,2-a]pyrimidine-3-carboxamide]	2590
CCNC(=O)c1c(OC)sc2nc(Cn3nc(C(F)(F)F)cc3Cl)cc(=O)n12 [compound 128, 7-[[5-chloro-3-(trifluoromethyl)pyrazol-1-yl]methyl]-N-ethyl-2-methoxy-5-oxo-thiazolo[3,2-a]pyrimidine-3-carboxamide]	682
CCNC(=O)c1c(OC)sc2nc(Cn3nc(C(F)(F)F)cc3C3CC3)cc(=O)n12 [compound 129, 7-[[5-cyclopropyl-3-(trifluoromethyl)pyrazol-1-yl]methyl]-N-ethyl-2-methoxy-5-oxo-thiazolo[3,2-a]pyrimidine-3-carboxamide]	774
Cc1sc2nc(Cc3cccc(C(F)(F)F)c3F)cc(=O)n2c1C1CC1C#N (stereo not shown) [compound 131, 2-[7-[[2-fluoro-3-(trifluoromethyl)phenyl]methyl]-2-methyl-5-oxo-thiazolo[3,2-a]pyrimidin-3-yl]cyclopropanecarbonitrile]	681
Cc1sc2nc(Cn3nc(Cl)cc3C(F)(F)F)cc(=O)n2c1-c1ccn[nH]1 [compound 133, 7-[[3-chloro-5-(trifluoromethyl)pyrazol-1-yl]methyl]-2-methyl-3-(1H-pyrazol-5-yl)thiazolo[3,2-a]pyrimidin-5-one]	10100

Other lines, results leading:

EC50 [nM]	SMILES
11600	Cc1sc2nc(Cc3cccc(C(F)(F)F)c3F)cc(=O)n2c1C1CC1O (stereo not shown) [compound 100, 7-[[2-fluoro-3-(trifluoromethyl)phenyl]methyl]-3-(2-hydroxycyclopropyl)-2-methyl-thiazolo[3,2-a]pyrimidin-5-one]
54.7	Cc1sc2nc(Cn3nc(C(F)(F)F)cc3Cl)cc(=O)n2c1C1CC1CO (stereo not shown) [compound 102, 7-[[5-chloro-3-(trifluoromethyl)pyrazol-1-yl]methyl]-3-[2-(hydroxymethyl)cyclopropyl]-2-methyl-thiazolo[3,2-a]pyrimidin-5-one]
3900	CCNC(=O)c1c(C#N)sc2nc(Cc3cccc(C(F)(F)F)c3F)cc(=O)n12 [compound 105, 2-Cyano-N-ethyl-7-[[2-fluoro-3-(trifluoromethyl)phenyl]methyl]-5-oxo-thiazolo[3,2-a]pyrimidine-3-carboxamide]
3400	Cc1sc2nc(Cc3cccc(C(F)(F)F)c3F)cc(=O)n2c1C(=O)NC(C)C [compound 106, 7-[[2-fluoro-3-(trifluoromethyl)phenyl]methyl]-N-isopropyl-2-methyl-5-oxo-thiazolo[3,2-a]pyrimidine-3-carboxamide]
247	Cc1sc2nc(Cn3nc(C(F)(F)F)cc3Cl)cc(=O)n2c1C(C)(C)O [compound 108, 7-[[5-chloro-3-(trifluoromethyl)pyrazol-1-yl]methyl]-3-(1-hydroxy-1-methyl-ethyl)-2-methyl-thiazolo[3,2-a]pyrimidin-5-one]
734	Cc1sc2nc(Cn3nc(Cl)cc3C(F)(F)F)cc(=O)n2c1C(C)(C)O [compound 109, 7-[[3-chloro-5-(trifluoromethyl)pyrazol-1-yl]methyl]-3-(1-hydroxy-1-methyl-ethyl)-2-methyl-thiazolo[3,2-a]pyrimidin-5-one]
2370	Cc1sc2nc(Cc3cccc(C#N)c3F)cc(=O)n2c1N1CCC1 [compound 113, 3-[[3-(azetidin-1-yl)-2-methyl-5-oxo-thiazolo[3,2-a]pyrimidin-7-yl]methyl]-2-fluoro-benzonitrile]
1030	Cc1sc2nc(Cn3nc(Cl)cc3C(F)(F)F)cc(=O)n2c1C1CC1 [compound 117, 7-[[3-chloro-5-(trifluoromethyl)pyrazol-1-yl]methyl]-3-cyclopropyl-2-methyl-thiazolo[3,2-a]pyrimidin-5-one]
325	CC(=O)c1c(C)sc2nc(Cn3nc(C(F)(F)F)cc3Cl)cc(=O)n12 [compound 119, 3-acetyl-7-[[5-chloro-3-(trifluoromethyl)pyrazol-1-yl]methyl]-2-methyl-thiazolo[3,2-a]pyrimidin-5-one]
995	CC(=O)c1c(C)sc2nc(Cn3nc(Cl)cc3C(F)(F)F)cc(=O)n12 [compound 120, 3-acetyl-7-[[3-chloro-5-(trifluoromethyl)pyrazol-1-yl]methyl]-2-methyl-thiazolo[3,2-a]pyrimidin-5-one]
17600	CC1CC1c1c(Cl)sc2nc(Cc3cccc(C(F)(F)F)c3F)cc(=O)n12 (stereo not shown) [compound 121, 2-chloro-7-[[2-fluoro-3-(trifluoromethyl)phenyl]methyl]-3-(2-methylcyclopropyl)thiazolo[3,2-a]pyrimidin-5-one]
5900	CCNC(=O)c1c(C)sc2nc(CN(C)c3ccc(Cl)cn3)cc(=O)n12 [compound 124, 7-[[(5-chloro-2-pyridyl)-methyl-amino]methyl]-N-ethyl-2-methyl-5-oxo-thiazolo[3,2-a]pyrimidine-3-carboxamide]
4870	CCNC(=O)c1c(OC)sc2nc(Cn3nc(Cl)cc3C(F)(F)F)cc(=O)n12 [compound 127, 7-[[3-chloro-5-(trifluoromethyl)pyrazol-1-yl]methyl]-N-ethyl-2-methoxy-5-oxo-thiazolo[3,2-a]pyrimidine-3-carboxamide]
6860	CCNC(=O)c1c(OC)sc2nc(Cn3nc(C4CC4)cc3C(F)(F)F)cc(=O)n12 [compound 130, 7-[[3-cyclopropyl-5-(trifluoromethyl)pyrazol-1-yl]methyl]-N-ethyl-2-methoxy-5-oxo-thiazolo[3,2-a]pyrimidine-3-carboxamide]
2040	Cc1sc2nc(Cn3nc(C(F)(F)F)cc3Cl)cc(=O)n2c1-c1ccn[nH]1 [compound 132]
